Drawing on US8173682B2, “Substituted pyridones as inhibitors of poly(ADP-ribose) polymerase (PARP)” (Aventis Pharmaceuticals Inc., priority 2004, dated 2012), this text covers IC50 for 28 compounds.

The structures appear in SMILES notation. Structures can show the parent of a compound that is named as a salt.

In this assay the target is recombinantly expressed human PARP-1 enzyme (Homo sapiens, UniProt P09874). Kind of assay: PARP enzyme assay, Method B (tritium-labeled NAD incorporation). The format is biochemical. The settings on record: Method B; 200 μM NAD, room temperature 1 hour, pH 8.0; read-out: IC50 (μM)/Method B. In a few lines: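 DNA-activated purified recombinant enzyme (2 μg/mL) incubated with test compound for 1 h at room temperature, pH 8.0, with 200 μM NAD plus tritiated NAD, DNA and histones. TCA-precipitated radiolabelled protein collected on glass-fibre filters and counted; IC50 is the concentration halving incorporation versus no-inhibitor control.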
Sequence of recombinantly expressed human PARP-1 enzyme (P09874 whole entry): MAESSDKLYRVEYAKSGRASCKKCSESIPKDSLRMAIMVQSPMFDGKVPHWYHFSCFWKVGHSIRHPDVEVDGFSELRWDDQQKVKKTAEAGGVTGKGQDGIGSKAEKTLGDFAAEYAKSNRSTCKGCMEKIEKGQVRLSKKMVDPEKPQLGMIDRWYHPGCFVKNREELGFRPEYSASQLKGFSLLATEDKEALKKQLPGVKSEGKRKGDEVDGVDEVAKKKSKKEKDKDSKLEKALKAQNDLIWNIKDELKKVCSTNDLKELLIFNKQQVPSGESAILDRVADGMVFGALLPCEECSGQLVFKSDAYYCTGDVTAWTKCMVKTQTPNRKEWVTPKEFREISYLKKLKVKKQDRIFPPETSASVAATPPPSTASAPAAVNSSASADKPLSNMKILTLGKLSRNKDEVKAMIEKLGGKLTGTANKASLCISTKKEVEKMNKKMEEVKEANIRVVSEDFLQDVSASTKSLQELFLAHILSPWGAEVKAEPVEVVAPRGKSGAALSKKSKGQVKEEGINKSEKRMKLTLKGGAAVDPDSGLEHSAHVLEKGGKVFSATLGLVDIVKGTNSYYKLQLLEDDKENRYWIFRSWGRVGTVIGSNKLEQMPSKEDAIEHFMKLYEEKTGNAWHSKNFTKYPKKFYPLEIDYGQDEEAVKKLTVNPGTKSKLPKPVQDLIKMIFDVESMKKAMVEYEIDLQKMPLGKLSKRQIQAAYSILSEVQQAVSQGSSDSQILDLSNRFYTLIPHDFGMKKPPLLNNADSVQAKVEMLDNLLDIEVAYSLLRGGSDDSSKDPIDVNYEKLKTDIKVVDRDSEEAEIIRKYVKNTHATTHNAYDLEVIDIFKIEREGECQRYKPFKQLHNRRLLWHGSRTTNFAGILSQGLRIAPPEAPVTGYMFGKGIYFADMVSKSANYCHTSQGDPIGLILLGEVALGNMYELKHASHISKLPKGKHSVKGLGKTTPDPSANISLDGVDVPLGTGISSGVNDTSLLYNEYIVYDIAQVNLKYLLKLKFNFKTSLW

`CCCCNC(=O)c1cncc(-c2cc(CC)c(=O)[nH]c2C)c1` [Example 223, 5′-Ethyl-2′-methyl-6′-oxo-1′,6′-dihydro-[3,3′]bipyridinyl-5-carboxylic acid butylamide]: the IC50 is 0.92 µM. In the case of `CCc1cc(-c2ccc(CNC(=O)C3CCCC3)o2)c(C)[nH]c1=O` [Example 269, Cyclopentanecarboxylic acid [5-(5-ethyl-2-methyl-6-oxo-1,6-dihydro-pyridin-3-yl)-furan-2-ylmethyl]-amide], the IC50 amounted to 1.97 µM. With `CCCCNC(=O)c1cccc(-c2cc(CC)c(=O)[nH]c2C)n1` [Example 206, 5′-Ethyl-2′-methyl-6′-oxo-1′,6′-dihydro-[2,3′]bipyridinyl-6-carboxylic acid butylamide] the figure was 1.14 µM; with `CCc1cc(-c2cncc(C(=O)N3CC(O)CC3C(=O)OC)c2)c(C)[nH]c1=O` (stereo not shown) [Example 231, 1-(5′-Ethyl-2′-methyl-6′-oxo-1′,6′-dihydro-[3,3′]bipyridinyl-5-carbonyl)-4-hydroxy-pyrrolidine-2-carboxylic acid methyl ester], 14.8 µM. For `CCc1cc(-c2ccc(C(C)O)o2)c(C)[nH]c1=O` (stereo not shown) [Example 268, 3-Ethyl-5-[5-(1-hydroxy-ethyl)-furan-2-yl]-6-methyl-1H-pyridin-2-one], the IC50 stood at 1.8 µM. Take `CCc1cc(-c2ccc(S(=O)(=O)NCc3ccc(S(C)(=O)=O)cc3)s2)c(C)[nH]c1=O` [Example 122C, 5-(5-Ethyl-2-methyl-6-oxo-1,6-dihydro-pyridin-3-yl)-thiophene-2-sulfonic acid 4-methanesulfonyl-benzylamide]: the IC50 stood at 0.86 µM.

Regarding `CCc1cc(-c2cncc(C(=O)NCCc3ccccc3)c2)c(C)[nH]c1=O` [Example 236, 5′-Ethyl-2′-methyl-6′-oxo-1′,6′-dihydro-[3,3′]bipyridinyl-5-carboxylic acid phenethyl-amide], the IC50 is 0.44 µM. The result for `CCc1cc(-c2cncc(C(=O)Nc3ccccc3CC(N)=O)c2)c(C)[nH]c1=O` [Example 251, 5′-Ethyl-2′-methyl-6′-oxo-1′,6′-dihydro-[3,3′]bipyridinyl-5-carboxylic acid (2-carbamoylmethyl-phenyl)-amide] reads 0.1 µM; that for `CCc1cc(-c2cncc(C(=O)NCCc3ccccn3)c2)c(C)[nH]c1=O` [Example 264, 5′-Ethyl-2′-methyl-6′-oxo-1′,6′-dihydro-[3,3′]bipyridinyl-5-carboxylic acid (2-pyridin-2-yl-ethyl)-amide], 3.14 µM.

`CCc1cc(-c2cncc(C(=O)NCCn3c([N+](=O)[O-])cnc3C)c2)c(C)[nH]c1=O` [Example 249, 5′-Ethyl-2′-methyl-6′-oxo-1′,6′-dihydro-[3,3′]bipyridinyl-5-carboxylic acid [2-(2-methyl-5-nitro-imidazol-1-yl)-ethyl]-amide]: the IC50 amounted to 5 µM. For `CCc1cc(-c2cccc(CN3CCC(O)CC3)n2)c(C)[nH]c1=O` [Example 182I, 5′-Ethyl-6-(4-hydroxy-piperidin-1-ylmethyl)-2′-methyl-1′H-[2,3′]bipyridinyl-6′-one], the IC50 came to 8.61 µM.

On to `CCc1cc(-c2ccc(C(=O)NCc3ccccn3)cn2)c(C)[nH]c1=O` [Example 208, 5′-Ethyl-2′-methyl-6′-oxo-1′,6′-dihydro-[2,3′]bipyridinyl-5-carboxylic acid (pyridin-2-ylmethyl)-amide], for which the IC50 was found to be 14.8 µM. Take `CCc1cc(-c2ccc(S(=O)(=O)NCc3c[nH]c4ccccc34)s2)c(C)[nH]c1=O` [Example 122D, 5-(5-Ethyl-2-methyl-6-oxo-1,6-dihydro-pyridin-3-yl)-thiophene-2-sulfonic acid (1H-indol-3-ylmethyl)-amide]: the IC50 was 0.06 µM. With `CCc1cc(-c2ccc(CNC(=O)c3ccccc3)o2)c(C)[nH]c1=O` [Example 271, N-[5-(5-Ethyl-2-methyl-6-oxo-1,6-dihydro-pyridin-3-yl)-furan-2-ylmethyl]-benzamide] the figure was 0.5 µM. `CCc1cc(-c2cncc(C(=O)NC[C@H](C)O)c2)c(C)[nH]c1=O` [Example 229, 5′-Ethyl-2′-methyl-6′-oxo-1′,6′-dihydro-[3,3′]bipyridinyl-5-carboxylic acid (2-hydroxy-propyl)-amide]: the IC50 came out at 4.7 µM. Regarding `CCc1cc(-c2cncc(C(=O)NCc3nccs3)c2)c(C)[nH]c1=O` [Example 250, 5′-Ethyl-2′-methyl-6′-oxo-1′,6′-dihydro-[3,3′]bipyridinyl-5-carboxylic acid (thiazol-2-ylmethyl)-amide], the IC50 turned out to be 0.64 µM. As for `CCc1cc(-c2cncc(C(=O)NCCc3ccc([N+](=O)[O-])cc3)c2)c(C)[nH]c1=O` [Example 230, 5′-Ethyl-2′-methyl-6′-oxo-1′,6′-dihydro-[3,3′]bipyridinyl-5-carboxylic acid [2-(4-nitro-phenyl)-ethyl]-amide], the IC50 came out at 0.13 µM. `CCc1cc(-c2cccc(CN3CCN(C(C)=O)CC3)n2)c(C)[nH]c1=O` [Example 182J, 6-(4-Acetyl-piperazin-1-ylmethyl)-5′-ethyl-2′-methyl-1′H-[2,3′]bipyridinyl-6′-one]: the IC50 amounted to 14.6 µM. With `CCc1cc(-c2cccc(C(=O)N3CCCC3)n2)c(C)[nH]c1=O` [Example 207, 5′-Ethyl-2′-methyl-6-(pyrrolidine-1-carbonyl)-1′H-[2,3′]bipyridinyl-6′-one], the IC50 was found to be 4.72 µM. Take `CCc1cc(-c2cncc(C(=O)NCCc3ccccc3O)c2)c(C)[nH]c1=O` [Example 232, 5′-Ethyl-2′-methyl-6′-oxo-1′,6′-dihydro-[3,3′]bipyridinyl-5-carboxylic acid [2-(2-hydroxy-phenyl)-ethyl]-amide]: the IC50 was 0.82 µM. In the case of `CCc1cc(-c2cccc(CN3CCCC3)n2)c(C)[nH]c1=O` [Example 182G, 5′-Ethyl-2′-methyl-6-pyrrolidin-1-ylmethyl-1′H-[2,3′]bipyridinyl-6′-one], the IC50 stood at 3.33 µM. With `CCc1cc(-c2cc(C(=O)NCCc3ccc([N+](=O)[O-])cc3)ccn2)c(C)[nH]c1=O` [Example 213, 5′-Ethyl-2′-methyl-6′-oxo-1′,6′-dihydro-[2,3′]bipyridinyl-4-carboxylic acid [2-(4-nitro-phenyl)-ethyl]-amide], the IC50 was found to be 0.21 µM. Consider `CCc1cc(-c2cncc(C(=O)NCC(O)c3ccccc3)c2)c(C)[nH]c1=O` (stereo not shown) [Example 253, 5′-Ethyl-2′-methyl-6′-oxo-1′,6′-dihydro-[3,3′]bipyridinyl-5-carboxylic acid (2-hydroxy-2-phenyl-ethyl)-amide], for which the IC50 was 0.49 µM. The result for `CCc1cc(-c2cccc(C(=O)NCCc3ccc([N+](=O)[O-])cc3)n2)c(C)[nH]c1=O` [Example 205, 5′-Ethyl-2′-methyl-6′-oxo-1′,6′-dihydro-[2,3′]bipyridinyl-6-carboxylic acid [2-(4-nitro-phenyl)-ethyl]-amide] reads 0.57 µM. As to `CCc1cc(-c2ccc(C=NOCCN3CCCC3)o2)c(C)[nH]c1=O` [Example 199, 3-Ethyl-2-methyl-6-oxo-1,6-dihydropyridin-3-yl)furan-2-carbaldehyde O-(2-pyrrolidin-1-ylethyl)oxime hydrochloride], the IC50 was 0.18 µM. `CCc1cc(-c2ccc(C(=O)NC3CCCC3)cn2)c(C)[nH]c1=O` [Example 212, 5′-Ethyl-2′-methyl-6′-oxo-1′,6′-dihydro-[2,3′]bipyridinyl-5-carboxylic acid cyclopentylamide]: the IC50 was determined as 12.9 µM. In the case of `CCc1cc(-c2cncc(C(=O)NCC(=O)c3ccc(OC)cc3)c2)c(C)[nH]c1=O` [Example 256, 5′-Ethyl-2′-methyl-6′-oxo-1′,6′-dihydro-[3,3′]bipyridinyl-5-carboxylic acid [2-(4-methoxy-phenyl)-2-oxo-ethyl]-amide], the IC50 was 0.45 µM. In the case of `CCc1cc(-c2cncc(C(=O)NCCc3cccc(OC)c3)c2)c(C)[nH]c1=O` [Example 240, 5′-Ethyl-2′-methyl-6′-oxo-1′,6′-dihydro-[3,3′]bipyridinyl-5-carboxylic acid [2-(3-methoxy-phenyl)-ethyl]-amide], the IC50 turned out to be 3.88 µM.
